From patent publication US7196110B2, “N-substituted tricyclic 3-aminopyrazoles as inhibitors for the treatment of cell proliferative disorders” (Janssen Phamaceutica N.V., priority 2002, dated 2007)
pIC50: −log10 of the molar value. Read-outs that look alike come from different tables or passages of the source.

Legend:
[1] = tested on: human coronary artery smooth muscle cells (HCASMC), PDGF-BB induced; experiment: Anti-cell proliferation in normal cells in the presence of PDGF stimulation (14C-thymidine incorporation); format: cell-based; conditions: read-out: IC50 on cell proliferation, HCASMC (PDGF-BB)
Description: The effect of compounds of the invention on cell proliferation in normal human primary cells, in particular, cryopreserved human coronary artery smooth muscle cells (HCASMC), in the presence of PDGF stimulation was tested based on incorporation of ^14C-thymidine into DNA of cells.
The following materials were purchased from their respective sources: Recombinant human PDGF beta homodimer, rhPDGF-BB (herein after referred as “PDGF-BB”) purchased from R&D System (Minneapolis, Minn., Cat. No 220-BB); Cryopreserved human coronary artery smooth muscle cells (HCASMC), tissue culture medium for HCASMC, and smooth muscle growth supplement (SMGS) purchased from Cascade Biologics (Portland, Oreg., HCASMC Cat. No: C-017-5C; Medium 231 Cat. No: M-231-500; and SMGS Cat. No: S-007-25); 96-well CytoStar tissue culture treated scintillating microplates purchased from Amersham (Piscataway, N.J., Cat. No: RPNQ0160); Methyl ^14C-thymidine at 56 mCi/mmol (250 μCi/2.5 mL) purchased from NEN (Cat. No.: NEC568); DMSO from Sigma (St. Louis, Mo., Cat. No: D-5879); Sterile reagent reservoirs from Costar (VWR International, Inc., West Chester, Pa., Cat. No: 4870); Dulbecco's PBS from Gibco (Cat. No: 14190-136); Backing tape white plate cover for bottom of CytoStar plate from Packard (Cat. No: 6005199)
HCASMC were seeded at approx. 4000 cells/well in a volume of 100 μl of complete Medium 231 with SMGS. Cells were grown for 48 hrs until they reach 80% confluence. They were then quiesced in SMGS-free Medium 231 for 24 hrs. Cell media were replenished with SMGS-free Medium 231 containing PDGF-BB at 50 ng/mL in a total volume of 100 μl/well; and 1 μl of test compounds in serially diluted concentrations in 100% DMSO was added to each well. For the maximum growth control wells, only 1 μl of 100% DMSO was added; for minimum growth (blank) wells, 1 μl of 10 mM cycloheximide was added to each well. After 24 hours incubation, 20 μl of ^14C-thymidine mix was added to each well and the ^14C-thymidine mix was made according the following regimen:
Cells were incubated for an additional 24 hrs in media containing test compounds, PDGF-BB and ^14C-thymidine. Then, the reaction mixture was discarded and the plate was washed 3 times each with 200 μl PBS. Subsequently, each well on the plate was filled with 200 μl of PBS. The top of the plate was sealed with transparent plate sealer and white plate backing sealers were applied to the bottom of plates. The retained ^14C inside each well was measured using a Packard TopCount.
The amount of ^14C retained in a well correlates to the proliferation of cells inside the well. […] In order to test the potency of inhibition of the present compound, IC50 of an individual compound on the inhibition of PDGF-BB induced HCASMC proliferation was measured using the above procedure. As used herein, said IC50 refers to the concentration of the test compound at which the amount of PDGF-BB induced HCASMC proliferation is reduced by one-half as compared to the maximum growth control wells without the compound.

[2] = tested on: human umbilical vein endothelial cells (HUVEC); experiment: Anti-cell proliferation in normal cells in the absence of PDGF stimulation (BrdU incorporation); format: cell-based; conditions: read-out: IC50 on cell proliferation, HUVEC (LSGS)
Description: The effect of compounds of the invention on cell proliferation in normal human primary cell, in particular, human umbilical vein endothelial cells (HUVEC), in the absence of PDGF stimulation was tested based on incorporation of BrdU into DNA of cells.
The following materials were purchased from their respective sources: HUVEC cells from Cascade Biologics, Cat No: C-015-10C; Medium 200 from Cascade Biologics, Cat No: M-200-500; Low serum growth supplements (LSGS) from Cascade Biologics, Cat No: S-003-10; F12-K medium from Gibco/BRL, Cat No: 21127-022; BrdU kit from Roche, Cat No: 1 647 229; and Trypsin/EDTA solution from Cascade Biologics, Cat No: R-001-100.
For propigation, HUVEC cells were grown in M-200 medium supplemented with LSGS. For studies, cells were detached with Trypsin/EDTA solution and washed three times with 10 mL of F12K (LS, low serum) medium and then centrifuged at 400×G for 5 minutes. F-12K (LS) medium is F-12K medium containing 0.2% heat-treated fetal bovine serum.
Cell concentration was adjusted to about 5×10^4 cells/mL in F-12K (LS) medium, and 200 μl (approx. 1×10^4 cells) were added to each well of a 96-well plate. Cells were then incubated for 16 to 20 hours at 37° C. under 95% air/5% CO2 to allow the cells to attach and become quiescent.
Cell proliferation was stimulated by adding 50 μL of a 1:10 dilution of LSGS in F12K (LS). Maximum-stimulated control wells were prepared by adding 50 μl of a 1:10 dilution of LSGS. Zero control wells contained 50 SL of F-12K (LS) medium only. Test compounds in 100% DMSO were added at a volume of 2.5 μl to achieve the desired final drug concentration. Replicates of eight wells per condition were tested. Cells were incubated at 37° C. overnight. On the next day 25 μL of BrdU (1:100 dilution of stock in F-12K (LS) medium) was added to each well.
Cells were incubated for an additional 20–24 hours. The medium was removed and the cells were fixed by adding 200 μL of FixDent solution (included in the BrdU kit) to each well and then incubated at room temperature for an additional 30 minutes. FixDent was removed by flicking and blotting the plates, and 100 μL of anti-BrdU-POD (included in the BrdU kit) diluted at a 1:100 dilution in antibody dilution solution (included in the BrdU kit) was added to each well. The diluted anti-BrdU-POD solution was prepared shortly before use. The plates were incubated at room temperature for 90 minutes.
The unbound antibody was removed by washing three times with Wash Solution (200 uL per wash). Wash Solution was prepared by making a 1:10 dilution of Wash Buffer Stock (included in the BrdU kit) with distilled water. Substrate solution (included in the BrdU kit) (100 uL) was added to each well and incubated for an additional 30–40 minutes. Plates were then read at 405 nm on a 96-well plate reader.
In order to test the potency of inhibition of the present compound, IC50 of an individual compound on the inhibition of PDGF-BB independent HUVEC proliferation was measured using the above procedure. As used herein, said IC50 refers to the concentration of the test compound at which the amount of HUVEC proliferation is reduced by one-half as compared to the maximum growth control wells without the compound.

[3] = PDGF-BB induced HCASMC proliferation

| Structure (SMILES) | pIC50 [1, 3] | pIC50 ([2]; LSGS, PDGF-BB independent) | pIC50 [1] | pIC50 [2] |
| --- | --- | --- | --- | --- |
| COC(=O)c1cccc(Nc2[nH]nc3c2Cc2cc(OC)c(OC)cc2-3)c1 [Compound 11, 3-(6,7-Dimethoxy-2,4-dihydro-indeno[1,2-c]pyrazol-3-ylamino)-benzoic acid methyl ester] | 7.85 | 8.70 |  |  |
| COc1cc2c(cc1OC)-c1n[nH]c(Nc3ccccc3F)c1C2 [Compound 12, (6,7-Dimethoxy-2,4-dihydro-indeno[1,2-c]pyrazol-3-yl)-(2-fluoro-phenyl)-amine] | 6.97 | 7.51 |  |  |
| COc1cc2c(cc1OC)-c1n[nH]c(Nc3cccc(F)c3)c1C2 [Compound 14, (3-Fluoro-phenyl)-(6,7-dimethoxy-2,4-dihydro-indeno[1,2-c]pyrazol-3-yl)-amine] |  |  | 8.52 | 5.31 |
| Cc1ccc2c(c1)-c1n[nH]c(Nc3ccccc3)c1C2 [Compound 22, (7-Methyl-2,4-dihydro-indeno[1,2-c]pyrazol-3-yl)-phenyl-amine] | 6.56 | 5.67 |  |  |
| COc1cc2c(cc1OC)-c1n[nH]c(Nc3cccnc3)c1C2 [Compound 30, (6,7-Dimethoxy-2,4-dihydro-indeno[1,2-c]pyrazol-3-yl)-pyridin-3-yl-amine] | 8.70 | < 6.00 |  |  |
| COc1ccc2c(c1)-c1n[nH]c(Nc3ccccc3)c1C2 [Compound 39, (7-Methoxy-2,4-dihydro-indeno[1,2-c]pyrazol-3-yl)-phenyl-amine] | 8.05 |  |  |  |
| COc1cc2c(cc1OC)-c1n[nH]c(NCc3ccccc3)c1C2 [Compound 63, Benzyl-(6,7-dimethoxy-2,4-dihydro-indeno[1,2-c]pyrazol-3-yl)-amine] | 7.85 | 5.61 |  |  |
| COc1cccc(Nc2[nH]nc3c2Cc2cc4c(cc2-3)OCO4)c1 [Compound 97, (2,9-Dihydro-5,7-dioxa-2,3-diaza-cyclopenta[a]-s-indacen-1-yl)-(3-methoxy-phenyl)-amine] | 7.72 | 5.72 |  |  |
| CN1CCN(c2ccc3c(c2)Cc2c-3n[nH]c2Nc2cccc(Br)c2)CC1 [Compound 122, (3-Bromo-phenyl)-[6-(4-methyl-piperazin-1-yl)-2,4-dihydro-indeno[1,2-c]pyrazol-3-yl]-amine] | 6.90 | 6.65 |  |  |
| COC(=O)c1cccc(Nc2[nH]nc3c2Cc2cc(OCCCN4CCCC4)c(OC)cc2-3)c1 [Compound 157, 3-[7-Methoxy-6-(3-pyrrolidin-1-yl-propoxy)-2,4-dihydro-indeno[1,2-c]pyrazol-3-ylamino]-benzoic acid methyl ester] | 8.10 | 6.66 |  |  |
| COc1cc2c(cc1OC)-c1n[nH]c(NCc3cc(Cl)ccc3Cl)c1C2 [Compound 330, (2,5-Dichloro-benzyl)-(6,7-dimethoxy-2,4-dihydro-indeno[1,2-c]pyrazol-3-yl)-amine] |  | 7.31 |  |  |
